Experimental findings from patent US6747009B2, “Peptidomimetic glutathione analogs” (Universiteit Leiden, priority 2002, dated 2004) are described below.

Data set [1] concerns rat liver cytosolic GSTs (S100). Briefly: Inhibition of rat liver cytosolic GSTs (S100), CDNB conjugation. It counts as biochemical. The conditions noted are these: S100, 1 mM GSH, 1 mM CDNB, pH 6.5, six inhibitor concentrations. On the procedure: Inhibition of GST mediated CDNB-conjugation was tested at pH=6.5, in the presence of non-limiting concentrations of GSH (1 mM) and CDNB (1 mM). The shown data are averages of three separate determinations. For clarity, error-bars were not included. […] Open markers with dotted lines indicate γGT sensitive compounds, closed markers with closed lines are γGT stabilized structures.
Freshly isolated rat livers were emulsified in 0.1M KCl using a Potter-Elvehjem homogeniser. After initial centrifugation for 30 minutes at 9000 g, the resulting supernatant was subjected to a second centrifugation for 75 minutes at 10^5 g. The cytosolic protein containing supernatant (S100) was used for the GST inhibition experiments. GST inhibition experiments were performed. All solutions were kept on ice until use. Various concentrations of the inhibitions were incubated at 37° C. with rat liver cytosol (1 μl, containing […] of total protein) in sodium-phosphate buffer, pH 6.5, supplemented with 0.1 mM EDTA and 1 mM GSH. Reaction was started by adding 4 μL CDNB in ethanol (final concentration=1 mM, maximal ethanol content=2% v/v). Formation of the GS-CDNB conjugate was followed at 340 nm for 5 minutes. Initial reaction velocities were corrected for the spontaneous (not GST catalyzed) reaction rates. Inhibition was determined as percentage of the non-inhibited reaction rate. Experiments were performed three times with duplicate measurements.
GST inhibition was tested at six concentrations of the GS-EA mimics.

In data set [2] the test system is bovine kidney γ-glutamyl transpeptidase. As to the kind of experiment: Stability towards γ-glutamyl transpeptidase (RP-HPLC disappearance of parent). Type of data set: in vitro ADME. The conditions noted are these: pH 7.4. The procedure: Peptide isosteres were incubated with 0.25 mg/ml bovine γ-glutamyltranspeptidase in 0.1M Tris-HCl buffer pH=7.4. At the appropriate time-point a sample (100 μL) was taken, heat inactivated and stored on ice until HPLC analysis. Disappearance of the indicated compounds was determined by RP-HPLC. Open markers indicate γGT sensitive compounds, closed markers are γGT stabilized.
The rate of degradation was determined by incubating 250 μM of GluPhg-Benzyl, RedPhg-Benzyl and UtPhg-Benzyl at 37° C. with 0.25 mg/ml bovine kidney γ-glutamyl transpeptidase in 0.1 M Tri-HCl buffer, pH 7.4, supplemented with 0.1 mM EDTA. At selected time-intervals, a 100 μL sample was taken, heat-inactivated, and stored on ice until HPLC-analysis. Analysis was performed by RP-HPLC on an Altech Platinum C18 column, using 50 mM ammonium acetate buffer pH 3.8, supplemented with 10-20% acetonitrile (optimized for the various peptide analogues) as eluent. Disappearance of the parent peak was determined by UV absorbency at […]. Remaining percentage of the parent compounds was determined as ratio of peak areas relative to the initial (t=0min) value.
The rate of degradation was determined by incubating 250 μM of the GS-EA analogues at 37° C. with 0.25 mg/ml bovine kidney γ-glutamyltranspeptidase in 0.1M Tris-HCl buffer, pH=7.4, supplemented with 0.1mM EDTA. At selected time-intervals, a 100 μL sample was taken, heat-inactivated, and stored on ice until HPLC-analysis. Analysis was performed by RP-HPLC on an Alltech Platinum C18 column, using 50mM ammonium acetate buffer pH=3.8, supplemented with 10-20% acetonitrile (optimized for the various peptide analogues) as eluent. Disappearance of the […] peak and emergence of the corresponding dipeptide-EA conjugate was detected by UV absorbency at 270 nm. Remaining percentage of the parent compounds was determined as ratio of peak areas relative to the initial (t=0 min) value. Results were corrected for non-peptidase mediated degradation of the ethacrynic acid conjugates.

A further data set deals with T1, human GSTP1-1 (Homo sapiens, UniProt P09211).
T1 construct: purchased PanVers Corporation (Madison, Wis., USA)
Briefly: GST inhibition assay (CDNB conjugation), Ki and % inhibition. It counts as biochemical. Conditions: for inhibition at 50 µM: 1 mM GSH, 1 mM CDNB, 50 μM inhibitor, relative to non-inhibited rate. On the procedure: (§1) Human recombinant GST isoenzymes A1-1, M1-1 and P1-1 were used for the GST inhibition assays. Experiments were performed according to Habig et al; (1974), J. Biol. Chem. 249, 7130-7139, modified for a 96-wells plate-reader assay. The purified human GST isoenzymes (10-20 ng/ml) were incubated with or without inhibitor (50 μM) in the presence of 8 different concentrations (50 μM-4 mM) GSH at 37° C. in 0.1 M potassium phosphate buffer pH 6.5/1 mM EDTA. The reaction was initiated by addition of CDNB in ethanol (final concentration 1 mM, 1% ethanol in assay mix), after which the formation of GS-DNB was spectrophotometrically monitored at 340 nm. Reaction rates were corrected for the non-enzymatic conjugate formation. Kt values (table 1) were determined using the Km, app method according to Kakkar et al. (1999), Drug Metab. Dispos. 27, 756-762; Kakkar et al. (2000), J. Pharmacol. Exp. Ther. 293, 861-869. Experiments were performed three times with quadruple measurements.

A further data set concerns the target T2, human GSTA1-1 (Homo sapiens, UniProt P08263).
T2 construct: purchased PanVers Corporation (Madison, Wis., USA)
T2 sequence (P08263 1-222): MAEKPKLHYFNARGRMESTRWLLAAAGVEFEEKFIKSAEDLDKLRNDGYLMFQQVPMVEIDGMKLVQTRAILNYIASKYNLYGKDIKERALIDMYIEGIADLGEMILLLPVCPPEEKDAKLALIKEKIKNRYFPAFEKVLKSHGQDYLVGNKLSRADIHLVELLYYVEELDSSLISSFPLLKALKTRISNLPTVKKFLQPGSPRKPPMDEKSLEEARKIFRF
Briefly: GST inhibition assay (CDNB conjugation), Ki determination. It counts as biochemical. Conditions: human recombinant GSTA1-1; ± SD; 50 μM inhibitor, 50 μM-4 mM GSH, 1 mM CDNB, pH 6.5. The procedure:
as §1

For the next data set, the target named is T3, human GSTM1-1 (Homo sapiens, UniProt P09488).
T3 construct: purchased PanVers Corporation (Madison, Wis., USA)
T3 sequence (P09488 2-218 limits assumed): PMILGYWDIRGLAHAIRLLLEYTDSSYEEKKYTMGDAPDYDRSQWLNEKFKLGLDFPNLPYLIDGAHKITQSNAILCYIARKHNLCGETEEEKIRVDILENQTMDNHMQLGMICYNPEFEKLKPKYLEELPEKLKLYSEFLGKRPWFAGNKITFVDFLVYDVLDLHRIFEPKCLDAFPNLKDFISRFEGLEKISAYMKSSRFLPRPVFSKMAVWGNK
The description is as above. It counts as biochemical. Conditions: human recombinant GSTM1-1; ± SD; 50 μM inhibitor, 50 μM-4 mM GSH, 1 mM CDNB, pH 6.5. On the procedure:
as §1

Another data set relates to MCF7 cells. As to the kind of experiment: Modulation of thiotepa cytotoxicity (cell proliferation by DNA content). Type of data set: cell-based. Conditions: Homo sapiens, MCF7, read-out: IC50 value of thiotepa, No Inh. On the procedure:
(§2) Cells (MCF7, VCREMS, 3 MTLn3/neo clones and 3 MTLn3/GSTP1-1 clones) were seeded at 10^4 cells/well in 24-wells polyethylene culture dishes. […] Various concentrations (3 μM-10 mM) of thiotepa (in serum-free medium) were added. After 4 hrs at 37° C., cells were washed twice with PBS, and subsequently incubated for 72 hours in culture medium (in absence of inhibitor). The cells were then rinsed once with BPS and lysed by repeated freeze-thaw cycles in 200 μl water, followed by homogenization on a rotary shaker. […] Stained DNA was measured by spectrofluorometry (excitation: 360 nm, emission 465 nm). A calibration curve of calf thymus DNA was used to determine total DNA quantities. Growth curves were calculated using the IC50 module of the enzyme kinetics program Grafit (version 3.0, Erithacus Software Ltd.).

Another data set concerns VCREMS cells. The data set is described as above. It counts as cell-based. The conditions noted are these: read-out: IC50 value of thiotepa, No Inh. The procedure:
as §2

Another data set concerns MTLn3/Neo cells. The description is as above. It counts as cell-based. The conditions noted are these: read-out: IC50 value of thiotepa, No Inh. On the procedure:
as §2

The next data set relates to MTLn3/GSTπ cells. The description is as above. It counts as cell-based. The conditions noted are these: read-out: IC50 value of thiotepa, No Inh. The procedure: as §2
In a further data set the test system is JNK in MTLn3 cells. As to the kind of experiment: JNK activation (phospho-JNK immunoblot). It counts as cell-based. Conditions: MTLn3/Neo and MTLn3/GSTπ; 50 μM Et2-RP-Bzl, Et2-UrP-Bzl or 20 μM TER199; 8 hours. On the procedure: Confluent monolayers of VCREMS, MTLn3/Neo (3 clones) and MTLn3/GSTπ (3 clones) cells in 12-well culture dishes were exposed for 8 or 16 hours to 50 μM of Et2-RP-Bzl, Et2-UrP-Bzl or 20 μM TER199 (all di-ethyl esters) in full medium at 37° C. Cells were then washed and subsequently scraped in ice-cold PBS. For MTLn3 cells, suspensions of the three different neo and three different GSTπ clones were combined. After centrifugation (10 min, 250 g, 4° C.), the cells were lysed by ultrasonication in cold TSB (10 mM Tris, 250 mM sucrose, 1 mM EGTA, pH 7.4), containing protease inhibitors (50 mM Na3VO4, 10 μg/ml leupeptin, 10 μg/ml pepstain, 1 mM phenylmethylsulfonylfuloride). Protein concentration was determined using the Bradford protein assay, using IgG as a standard.
For GSTπ blotting, non-reducing and non-denaturing conditions were used to keep GSTP in its original (homodimer) state. JNK blots were subjected to standard Western blotting sample pre-treatment protocols. Twenty micrograms of total cellular protein was separated by SDS-polyacrylamide gel electrophoresis and subsequently transferred to polyvinylidene difluoride membrane (Millipore). […] Active JNK was detected by an alkaline phosphatase coupled goat antibody, which was visualized with the Tropix kit (PerkinElmer Life Sciences).
In general terms: A western blot detects proteins with antibodies after separation by electrophoresis.

Where [3] appears, read: 250 μM compound, 0.25 mg/ml bovine kidney γGT, 37° C.

Usually Ki stands for the equilibrium dissociation constant of an inhibitor or competing ligand from its target. The IC50 is the midpoint of a concentration-inhibition curve. What is called inhibition is the change of the read-out against control, counted positive when it falls. Lower therefore signals little suppression.

Numbered stars: 1 amine (or outer) side, 2 acyl side, 3 side chain; on linkers, the order of the positions; unused ones are H or OH. Square brackets hold non-standard residues; d marks the D form. Peptide text beside a SMILES is read from it. * marks the point of attachment. ξ: configuration not given here. γGlu = O=C(O)[C@H](CCC(=O)[*:2])N[*:1]; ξPhg = NC(C(=O)O)c1ccccc1; Bn = c1ccc(C*)cc1

T1 sequence (P09211 2-210 limits assumed): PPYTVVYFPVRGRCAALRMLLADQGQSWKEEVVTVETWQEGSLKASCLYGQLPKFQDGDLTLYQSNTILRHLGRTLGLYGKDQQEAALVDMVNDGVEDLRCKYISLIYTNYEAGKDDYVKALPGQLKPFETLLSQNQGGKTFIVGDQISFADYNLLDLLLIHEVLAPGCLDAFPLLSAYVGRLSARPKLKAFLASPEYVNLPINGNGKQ

In the case of “γ-Glu[2-amino-1-mercapto(S-EA)-6-hexanoic acid]-OH [IV]”, the “inhibition of rat liver cytosolic GSTs (in words)” value (“inhibition … (in words)” for short) in data set [1] is recorded as “poor inhibitor of cytosolic GSTs”. Also, in data set [2] (setting [3]), the “stability towards γGT (in words)” value was “very sensitive towards γGT mediated cleavage”.
For the compound `CN(C(=O)CC[C@H](N)C(=O)O)[C@@H](CS)C(=O)NCC(=O)O` [III, γ-Glu[MeCys-Gly-OH]—OH], in data set [1], the “inhibition … (in words)” value was “a decrease in inhibition was seen”.
With H-Glo[Cys(EA)-Gly-OH]—OH [VI], in data set [1], the “inhibition … (in words)” value is “efficient γGT stable inhibitors”.
As to `N[C@@H](CCC(=O)N[C@@H](CSCc1ccccc1)C(=O)NC(C(=O)O)c1ccccc1)C(=O)O` (stereo partly drawn) [GluPhg-Benzyl (I), γ-L-glutamyl-L-cysteinyl(benzyl)-D-phenylglycine, reference compound] (γGlu-Cys(Bn)-[ξPhg]-OH), the results for the Ki at human GSTP1-1, on human GSTA1-1 and at human GSTM1-1 were 0.8 ± 0.3 µM, 23 ± 6 µM and 21 ± 4 µM, respectively.
Turning to `CCC(CSC[C@H](NC(=O)CC[C@H](N)C(=O)O)C(=O)NCC(=O)O)C(=O)c1ccc(OCC(=O)O)c(Cl)c1Cl` (stereo partly shown) [I, γ-Glu[Cys(EA)-Gly-OH]—OH, reference compound], in data set [2] (setting [3]), the “stability towards γGT (in words)” value is listed as “cleaved rapidly” and the “time to complete degradation of the GSH backbone by γGT” value was at most 20 min.
H-Glu[Ψ(CH2NH)-Cys(EA)-Gly-OH]—OH [V]: the “inhibition … (in words)” value in data set [1] is “efficient γGT stable inhibitors”.
For `S=P(N1CC1)(N1CC1)N1CC1` [thiotepa], the IC50 was 699 ± 50 µM with MCF7 cells, 2840 ± 1100 µM in the data set on VCREMS cells, 164 ± 9 µM with MTLn3/Neo cells and 219 ± 21 µM in the data set with MTLn3/GSTπ cells.
Regarding γ-Glu[Cys(EA)-Src-OH]—OH [II], the “inhibition … (in words)” value in [1] is given as “comparable inhibition pattern to compound I”. In addition, the “t½ of γGT mediated hydrolysis” value in data set [2] is recorded as “approximately equal to the half-life of GS-EA”.
As for `N[C@@H](CCCN[C@@H](CSCc1ccccc1)C(=O)NC(C(=O)O)c1ccccc1)C(=O)O` (stereo partly shown) [RedPhg-Benzyl (II)], the Ki on human GSTP1-1 turned out to be 6 ± 3 µM; on human GSTA1-1 it was 55 ± 11 µM; at human GSTM1-1, 29 ± 6 µM. Besides, the inhibition at 50 µM against human GSTP1-1 came out at 81%.
Consider `CCOC(=O)[C@@H](N)CCC(=O)N[C@@H](CSCc1ccccc1)C(=O)N[C@@H](C(=O)OCC)c1ccccc1` [TER199], for which the “phospho-JNK (JNK1, JNK2) formation” value in the data set with JNK in MTLn3 cells is recorded as “a small band appeared just below the 54 kDa active JNK2 band”.
In the case of `N[C@@H](COC(=O)N[C@@H](CSCc1ccccc1)C(=O)NC(C(=O)O)c1ccccc1)C(=O)O` (stereo partly shown) [UrPhg-Benzyl (III), H-Glo[Cys(Bzl)-Phg-OH]-OH], the Ki at human GSTP1-1 came out at 3 ± 2 µM; on human GSTA1-1 it was 29 ± 4 µM; on human GSTM1-1 it was 16 ± 2 µM. This compound yielded an inhibition at 50 µM at human GSTP1-1 of 93%.
